Reference: patent US20230104936A1, “TRPML MODULATORS” (Casma Therapeutics, Inc., priority 2019, published 2023)

System: TFEB
Assay: TFEB nuclear translocation assay, HeLa wt cells
Type: cell-based
Conditions: 2 hrs compound treatment, Table 1 does not say HeLa wt or TRPML1 KO
Summary of the method: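 HeLa wt or TRPML1 KO cells treated 2 hrs with compounds at 37° C, fixed in 4% PFA, immunostained with anti-TFEB plus Alexa 488 secondary and Hoechst. Imaged at ×20, four fields/well; read-out is nuclear/perinuclear-ring TFEB intensity ratio, reported as AC50.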

Row | Compound | AC50 (Homo sapiens, HeLa, 2 h) [nM] | AC50 [nM]
1 | CN(C)S(=O)(=O)c1ccc(S(=O)(=O)Nc2ccccc2N2CCN(C(=O)C3CCCC3(F)F)CC2)cc1 (centres unmarked) [Compound A-459, N4-{2-[4-(2,2-difluorocyclopentanecarbonyl)piperazin-1-yl]phenyl}-N1,N1-dimethylbenzene-1,4-disulfonamide] | 2010 to 8000 | –
2 | O=S(=O)(Nc1ccccc1N1CCN(c2ccc(Cl)cc2F)CC1)C1CCOCC1 [Compound A-14, N-{2-[4-(4-chloro-2-fluorophenyl)piperazin-1-yl]phenyl}oxane-4-sulfonamide] | 2010 to 8000 | –
3 | COCC1(C)CCN(c2ccccc2NS(=O)(=O)c2ccc(S(=O)(=O)N(C)C)cc2)CC1 [Compound A-438, N4-{2-[4-(methoxymethyl)-4-methylpiperidin-1-yl]phenyl}-N1,N1-dimethylbenzene-1,4-disulfonamide] | ≤ 2000 | –
4 | CN(C)S(=O)(=O)c1ccc(S(=O)(=O)Nc2ccccc2N2CCC(c3ccc(-c4nnn[nH]4)cc3)CC2)cc1 [Compound A-273, N1,N1-dimethyl-N4-(2-{4-[4-(1H-1,2,3,4-tetrazol-5-yl)phenyl]piperidin-1-yl}phenyl)benzene-1,4-disulfonamide] | ≥ 10000 | –
5 | COCC1(C)CCN(c2ccccc2NS(=O)(=O)C2=Cc3ccccc3OCC2)CC1 [Compound A-624, N-{2-[4-(methoxymethyl)-4-methylpiperidin-1-yl]phenyl}-2,3-dihydro-1-benzoxepine-4-sulfonamide] | 2010 to 8000 | –
6 | COCCN1CCN(c2ccccc2NS(=O)(=O)c2ccc(S(=O)(=O)N(C)C)cc2)CC1 [Compound A-553, N4-{2-[4-(2-methoxyethyl)piperazin-1-yl]phenyl}-N1,N1-dimethylbenzene-1,4-disulfonamide] | 2010 to 8000 | –
7 | Cc1ccc(N2CCOCC2)c(NS(=O)(=O)Cc2ccc3c(c2)COCC3)c1 [Compound A-629, 1-(3,4-dihydro-1H-2-benzopyran-7-yl)-N-[5-methyl-2-(morpholin-4-yl)phenyl]methanesulfonamide] | 2010 to 8000 | –
8 | Cc1ccc(CS(=O)(=O)Nc2ccccc2N2CCC3(CC2)COC(C)(C)C3)cc1F [Compound A-677, N-(2-{3,3-dimethyl-2-oxa-8-azaspiro[4.5]decan-8-yl}phenyl)-1-(3-fluoro-4-methylphenyl)methanesulfonamide] | ≤ 2000 | –
9 | COCC1(C)CCN(c2ccccc2NS(=O)(=O)Cc2cccc(S(=O)(=O)COC)c2)CC1 [Compound A-744, 1-(3-methoxymethanesulfonylphenyl)-N-{2-[4-(methoxymethyl)-4-methylpiperidin-1-yl]phenyl}methanesulfonamide] | ≥ 10000 | –
10 | CCN1CCN(c2c(Cl)cccc2NS(=O)(=O)c2ccc3c(c2)CCC3)C(=O)C1 [Compound A-315, N-[3-chloro-2-(4-ethyl-2-oxopiperazin-1-yl)phenyl]-2,3-dihydro-1H-indene-5-sulfonamide] | ≥ 10000 | –
11 | CN(C)S(=O)(=O)c1ccc(S(=O)(=O)Nc2ccc(F)cc2N2CCC3(CC2)COC(C)(C)C3)cc1 [Compound A-606, N4-(2-{3,3-dimethyl-2-oxa-8-azaspiro[4.5]decan-8-yl}-4-fluorophenyl)-N1,N1-dimethylbenzene-1,4-disulfonamide] | 2010 to 8000 | –
12 | CC(C)S(=N)(=O)c1ccc(S(=O)(=O)[C@H](C)c2cccc(F)c2N2CCCCC2)cc1 (single isomer, unassigned) [Compound A-923] | ≥ 10000 | –
13 | CN(C)S(=O)(=O)c1ccc(S(=O)(=O)Nc2ccccc2N2CCCN(C3CC3)CC2)cc1 [Compound A-484, N4-[2-(4-cyclopropyl-1,4-diazepan-1-yl)phenyl]-N1,N1-dimethylbenzene-1,4-disulfonamide] | 2010 to 8000 | –
14 | C[C@@H]1CN(CC2CCN(c3c(F)cccc3NS(=O)(=O)c3ccc(C(F)(F)C4CC4)cc3)CC2)C[C@H](C)O1 [Compound A-814, 4-(cyclopropyldifluoromethyl)-N-[2-(4-{[(2R,6S)-2,6-dimethylmorpholin-4-yl]methyl}piperidin-1-yl)-3-fluorophenyl]benzene-1-sulfonamide] | ≤ 2000 | –
15 | COCC1(C)CCN(c2c(NS(=O)(=O)c3ccc(S(=O)(=O)N(C)C)cc3)ccc3ccnn23)CC1 [Compound A-822, N4-{7-[4-(methoxymethyl)-4-methylpiperidin-1-yl]pyrazolo[1,5-a]pyridin-6-yl}-N1,N1-dimethylbenzene-1,4-disulfonamide] | 2010 to 8000 | –
16 | O=C(NC1CC1)c1ccc(S(=O)(=O)Nc2ccccc2N2CCC(c3ccc(Cl)cc3F)CC2)cc1 [Compound A-45, 4-({2-[4-(4-chloro-2-fluorophenyl)piperidin-1-yl]phenyl}sulfamoyl)-N-cyclopropylbenzamide] | 2010 to 8000 | –
17 | CC(c1cccc(F)c1N1CCC(CN2C3CCC2COC3)CC1)S(=O)(=O)c1ccc2c(c1)CC(C)(C)O2 (centres unmarked) [Compound A-886, 8-{[1-(2-{1-[(2,2-dimethyl-2,3-dihydro-1-benzofuran-5-yl)sulfonyl]ethyl}-6-fluorophenyl)piperidin-4-yl]methyl}-3-oxa-8-azabicyclo[3.2.1]octane] | ≤ 2000 | –
18 | CC(c1cccc(F)c1N1CCC(CN2CCC(F)(F)CC2)CC1)S(=O)(=O)c1ccc(S(=O)(=O)N(C)C)cc1 (centres unmarked) [Compound A-801, 4-((1-(2-(4-((4,4-difluoropiperidin-1-yl)methyl)piperidin-1-yl)-3-fluorophenyl)ethyl)sulfonyl)-N,N-dimethylbenzenesulfonamide] | ≤ 2000 | –

Row | Compound | AC50 (Homo sapiens, HeLa, 2 h) [nM] | AC50 [nM]
19 | Cc1ccc(S(=O)(=O)c2ccccc2N2CCC(c3ccc(Cl)cc3F)CC2)cc1 [Compound A-133] | ≥ 10000 | –
20 | CN(C)S(=O)(=O)c1ccc(S(=O)(=O)Nc2ccccc2N2CCN(C(=O)C(C)(C)C)CC2)cc1 [Compound A-225, N4-{2-[4-(2,2-dimethylpropanoyl)piperazin-1-yl]phenyl}-N1,N1-dimethylbenzene-1,4-disulfonamide] | 2010 to 8000 | –
21 | CN(C)S(=O)(=O)c1ccc(S(=O)(=O)Nc2ccccc2N2[C@@H]3CC[C@H]2CN(c2ccc(Cl)cc2F)C3)cc1 [Compound A-25, N4-{2-[(1R,5S)-3-(4-chloro-2-fluorophenyl)-3,8-diazabicyclo[3.2.1]octan-8-yl]phenyl}-N1,N1-dimethylbenzene-1,4-disulfonamide] | ≤ 2000 | –
22 | CN(C)S(=O)(=O)c1ccc(S(=O)(=O)Nc2ccccc2C2=CCN(c3ccc(Cl)cc3F)CC2)cc1 [Compound A-19, N1-(2-(1-(4-chloro-2-fluorophenyl)-1,2,3,6-tetrahydropyridin-4-yl)phenyl)-N4,N4-dimethylbenzene-1,4-disulfonamide] | ≤ 2000 | –
23 | CN(C)S(=O)(=O)c1ccc(S(=O)(=O)Nc2ccccc2N2CCN(C(=O)N3CC4CC3C4)CC2)cc1 [Compound A-447] | 2010 to 8000 | –
24 | CC(Sc1ccc(S(=O)(=O)C(F)F)cc1)c1cccc(F)c1N1CCCCC1 (centres unmarked) [Compound A-971, 1-(2-{1-[(4-difluoromethanesulfonylphenyl)sulfanyl]ethyl}-6-fluorophenyl)piperidine] | 2010 to 8000 | –
25 | CN1CC2(CCN(c3ccccc3NS(=O)(=O)c3ccc(S(C)(=O)=O)cc3)CC2)c2ncccc21 [Compound A-320, 4-methanesulfonyl-N-(2-{1′-methyl-1′,2′-dihydrospiro[piperidine-4,3′-pyrrolo[3,2-b]pyridin]-1-yl}phenyl)benzene-1-sulfonamide; formic acid] | ≥ 10000 | –
26 | COCC1(C)CCN(c2ccccc2NS(=O)(=O)Cc2ccccc2C#N)CC1 [Compound A-610, 1-(2-cyanophenyl)-N-{2-[4-(methoxymethyl)-4-methylpiperidin-1-yl]phenyl}methanesulfonamide] | 2010 to 8000 | –
27 | CC(c1cccc(F)c1N1CCC(CN2C[C@H]3C[C@@H](C2)O3)CC1)S(=O)(=O)c1ccc(S(=O)(=O)N(C)C)cc1 (single isomer, unassigned) [Compound A-849] | – | 2010 to 8000
28 | COCC1(C)CCN(c2ccccc2NS(=O)(=O)Cc2cccc(S(=O)(=O)N(C)C)c2)CC1 [Compound A-680, 3-[({2-[4-(methoxymethyl)-4-methylpiperidin-1-yl]phenyl}sulfamoyl)methyl]-N,N-dimethylbenzene-1-sulfonamide] | 8010 to 9990 | –
29 | CCC1(OC)CCN(c2ccccc2NS(=O)(=O)c2ccc(S(=O)(=O)N(C)C)cc2)CC1 [Compound A-546, N4-[2-(4-ethyl-4-methoxypiperidin-1-yl)phenyl]-N1,N1-dimethylbenzene-1,4-disulfonamide] | ≤ 2000 | –
30 | COCC1(C)CC2CCC(C1)N2c1ccccc1NS(=O)(=O)c1ccc(S(=O)(=O)N(C)C)cc1 (centres unmarked) [Compound A-734, N4-{2-[3-(methoxymethyl)-3-methyl-8-azabicyclo[3.2.1]octan-8-yl]phenyl}-N1,N1-dimethylbenzene-1,4-disulfonamide] | ≤ 2000 | –
31 | COCC1(C)CCN(c2ccccc2NS(=O)(=O)Cc2ccc(C)cc2F)CC1 [Compound A-709, 1-(2-fluoro-4-methylphenyl)-N-{2-[4-(methoxymethyl)-4-methylpiperidin-1-yl]phenyl}methanesulfonamide] | 2010 to 8000 | –
32 | COCC1(C)CCN(c2ccccc2NS(=O)(=O)Cc2ccc(OC)cc2)CC1 [Compound A-582, N-{2-[4-(methoxymethyl)-4-methylpiperidin-1-yl]phenyl}-1-(4-methoxyphenyl)methanesulfonamide] | 2010 to 8000 | –
33 | CN(C)S(=O)(=O)c1ccc(S(=O)(=O)Nc2ccccc2N2CCC(c3ccc(Cl)cc3F)CC2)c(F)c1 [Compound A-149, N4-{2-[4-(4-chloro-2-fluorophenyl)piperidin-1-yl]phenyl}-3-fluoro-N1,N1-dimethylbenzene-1,4-disulfonamide] | ≤ 2000 | –
34 | CNS(=O)(=O)c1ccc(S(=O)(=O)Nc2ccccc2N2CCC(c3ccc(Cl)cc3F)CC2)cc1 [Compound A-424, N1-{2-[4-(4-chloro-2-fluorophenyl)piperidin-1-yl]phenyl}-N4-methylbenzene-1,4-disulfonamide] | 2010 to 8000 | –
35 | COCC1(C)CCN(c2ccccc2NS(=O)(=O)Cc2cccc(C)c2)CC1 [Compound A-593, N-{2-[4-(methoxymethyl)-4-methylpiperidin-1-yl]phenyl}-1-(3-methylphenyl)methanesulfonamide] | 2010 to 8000 | –
